From patent publication US10336762B2 (priority 2017, dated 2019) come the findings set out here.

One test deals with TNFα. Description: cells. In kind it is cell-based, human. Conditions: Homo sapiens, Monocyte, LPS-stimulated human monocytes, TNFα content; read-out: EC50 TNF.
A further test addresses IRAK4 enzyme (Homo sapiens (Human), UniProt Q9NWZ3). As to the kind of experiment: biochemical. It is filed as biochemical. The settings on record: IRAK4 enzyme, TR-FRET (HTRF), 500 μM ATP.

Chain of IRAK4 enzyme (Q9NWZ3 whole entry): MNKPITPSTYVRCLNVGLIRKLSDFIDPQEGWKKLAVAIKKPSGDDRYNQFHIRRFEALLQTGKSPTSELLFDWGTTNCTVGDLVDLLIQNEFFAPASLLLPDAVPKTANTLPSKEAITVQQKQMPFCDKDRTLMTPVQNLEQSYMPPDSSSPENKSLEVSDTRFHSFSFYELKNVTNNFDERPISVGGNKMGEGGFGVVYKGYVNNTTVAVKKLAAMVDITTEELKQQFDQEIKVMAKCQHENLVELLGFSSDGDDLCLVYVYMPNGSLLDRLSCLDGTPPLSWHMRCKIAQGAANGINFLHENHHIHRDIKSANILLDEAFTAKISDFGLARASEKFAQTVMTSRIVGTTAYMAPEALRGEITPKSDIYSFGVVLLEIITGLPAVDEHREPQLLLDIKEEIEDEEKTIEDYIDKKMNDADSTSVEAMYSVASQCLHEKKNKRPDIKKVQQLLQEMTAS

Take `CC(C)(O)[C@H](F)CNC(=O)c1cnc(-c2ccc3cc(C#N)cnn23)cc1N[C@H]1C[C@H](COC(=O)NC2CC2)C1` [Example 735, ((1R,3r)-3-((2-(3-cyano-pyrrolo[1,2-b]pyridazin-7-yl)-5-(((R)-2-fluoro-3-hydroxy-3-methylbutyl)carbamoyl)pyridin-4-yl)amino)cyclobutyl)methyl cyclopropylcarbamate]: the EC50 in the test with TNFα came out at 100 nM. The compound also returned a concentration for half-maximal inhibition (IC50) on IRAK4 enzyme of 1 nM.
The corresponding values for `CC(C)(O)[C@H](F)CNC(=O)c1cnc(-c2ccc3cc(C#N)cnn23)cc1N[C@H]1C[C@H](COC(=O)NCC(F)F)C1` [Example 736, ((1R,3r)-3-((2-(3-cyano-pyrrolo[1,2-b]pyridazin-7-yl)-5-(((R)-2-fluoro-3-hydroxy-3-methylbutyl)carbamoyl)pyridin-4-yl)amino)cyclobutyl) methyl (2,2-difluoro-ethyl)carbamate] are 48 nM and below 1 nM.
The corresponding values for `CC(C)(O)[C@H](F)CNC(=O)c1cnc(-c2ccc3cc(C#N)cnn23)cc1N[C@H]1C[C@H](COC(=O)N2CCC(F)(F)C2)C1` [Example 737, ((1R,3r)-3-((2-(3-cyano-pyrrolo[1,2-b]pyridazin-7-yl)-5-(((R)-2-fluoro-3-hydroxy-3-methylbutyl)carbamoyl)pyridin-4-yl)amino)cyclobutyl) methyl 3,3-difluoro-pyrrolidine-1-carboxylate] are 26 nM and below 1 nM.
The matching figures for `CC(C)(O)[C@H](F)CNC(=O)c1cnc(-c2ccc3cc(C#N)cnn23)cc1N[C@H]1C[C@H](COC(=O)N2CC(F)(F)C2)C1` [Example 738, ((1R,3r)-3-((2-(3-cyano-pyrrolo[1,2-b]pyridazin-7-yl)-5-(((R)-2-fluoro-3-hydroxy-3-methylbutyl)carbamoyl)pyridin-4-yl)amino)cyclobutyl) methyl 3,3-difluoro-azetidine-1-carboxylate]: 29 nM and below 1 nM.
With `N#Cc1cnn2c(-c3cc(NC45CCC(O)(CC4)CC5)c(C(=O)NCC4(F)CCC4)cn3)ccc2c1` [Example 739, 6-(3-cyanopyrrolo[1,2-b]pyridazin-7-yl)-N-((1-fluorocyclobutyl)methyl)-4-((4-hydroxybicyclo[2.2.2]octan-1-yl)amino) nicotinamide], the EC50 with TNFα was 277 nM. At IRAK4 enzyme, this compound yielded an IC50 of 4 nM.
For `CC(C)(F)CNC(=O)c1cnc(-c2ccc3cc(C#N)cnn23)cc1NC12CCC(O)(CC1)CC2` [Example 740, 6-(3-cyanopyrrolo[1,2-b]pyridazin-7-yl)-N-(2-fluoro-2-methylpropyl)-4-((4-hydroxybicyclo[2.2.2]octan-1-yl)amino) nicotinamide], the EC50 in the test on TNFα was 265 nM. Moreover, half-maximal inhibition on IRAK4 enzyme (IC50) was put at 4 nM.
The matching figures for `COC(=O)N1CC[C@H](CNC(=O)c2cnc(-c3ccc4cc(C#N)cnn34)cc2NC23CCC(O)(CC2)CC3)C1` [Example 741, (R)-methyl 3-((6-(3-cyano-pyrrolo[1,2-b]pyridazin-7-yl)-4-((4-hydroxybicyclo[2.2.2]octan-1-yl)amino)nicotin-amido)methyl)pyrrolidine-1-carboxylate]: 124 nM and below 1 nM.
In the case of `COC(=O)N1CC[C@@H](CNC(=O)c2cnc(-c3ccc4cc(C#N)cnn34)cc2NC23CCC(O)(CC2)CC3)C1` [Example 742, (S)-methyl 3-((6-(3-cyano-pyrrolo[1,2-b]pyridazin-7-yl)-4-((4-hydroxy-bicyclo[2.2.2]octan-1-yl)amino)nicotinamido)methyl)pyrrolidine-1-carboxylate], the EC50 in the test with TNFα stood at 126 nM. Moreover, the IC50 against IRAK4 enzyme is 1 nM.
The matching figures for `CNC(=O)OC[C@H](F)CNC(=O)c1cnc(-c2ccc3cc(C#N)cnn23)cc1NC12CCC(O)(CC1)CC2` [Example 743, (R)-3-(6-(3-cyano-pyrrolo[1,2-b]pyridazin-7-yl)-4-((4-hydroxy-bicyclo[2.2.2]octan-1-yl)amino)nicotin-amido)-2-fluoropropyl methylcarbamate]: 54 nM and below 1 nM.
The matching figures for `COC(=O)N1CC(CNC(=O)c2cnc(-c3ccc4cc(C#N)cnn34)cc2NC23CCC(O)(CC2)CC3)C1` [Example 744, methyl 3-((6-(3-cyano-pyrrolo[1,2-b]pyridazin-7-yl)-4-((4-hydroxy-bicyclo[2.2.2]octan-1-yl)amino)nicotinamido)methyl)azetidine-1-carboxylate]: 157 nM and 2 nM.
Consider `N#Cc1cnn2c(-c3cc(NC45CCC(O)(CC4)CC5)c(C(=O)NCCO)cn3)ccc2c1` [Example 745, 6-(3-cyanopyrrolo[1,2-b]pyridazin-7-yl)-4-((4-hydroxybicyclo[2.2.2]octan-1-yl)amino)-N-(2-hydroxyethyl)nicotinamide], for which the EC50 in the test with TNFα turned out to be 87 nM. In addition, the half-maximal inhibitory concentration (IC50) on IRAK4 enzyme was below 1 nM.
The matching figures for `COC(=O)NCCNC(=O)c1cnc(-c2ccc3cc(C#N)cnn23)cc1NC12CCC(O)(CC1)CC2` [Example 746, methyl (2-(6-(3-cyano-pyrrolo[1,2-b]pyridazin-7-yl)-4-((4-hydroxy-bicyclo[2.2.2]octan-1-yl)amino)nicotinamido)ethyl)carbamate]: 105 nM and 1 nM.
The corresponding values for `CNC(=O)O[C@@H]1CCC[C@H](Nc2cc(-c3ccc4cc(C#N)cnn34)ncc2C(=O)NC[C@@H](F)C(C)(C)O)C1` [Example 748, (1R,3S)-3-((2-(3-cyano-pyrrolo[1,2-b]pyridazin-7-yl)-5-(((R)-2-fluoro-3-hydroxy-3-methylbutyl)carbamoyl)pyridin-4-yl)amino)cyclohexyl methylcarbamate] are 38 nM and below 1 nM.
The matching figures for `CC(C)(O)[C@H](F)CNC(=O)c1cnc(-c2ccc3cc(C#N)cnn23)cc1NC1CC2(C1)CC(F)(F)C2` [Example 749, (R)-6-(3-cyanopyrrolo[1,2-b]pyridazin-7-yl)-4-((6,6-difluorospiro[3.3]heptan-2-yl)amino)-N-(2-fluoro-3-hydroxy-3-methylbutyl) nicotinamide]: 52 nM and below 1 nM.
For the compound `COC(=O)N[C@H]1CC[C@H](Nc2cc(-c3ccc4cc(C#N)cnn34)ncc2C(=O)NC[C@@H](F)C(C)(C)O)C1` [Example 750, methyl ((1S,3S)-3-((2-(3-cyanopyrrolo[1,2-b]pyridazin-7-yl)-5-(((R)-2-fluoro-3-hydroxy-3-methylbutyl)carbamoyl)pyridin-4-yl)amino)cyclopentyl) carbamate], the EC50 in the test with TNFα came out at 198 nM. In addition, at IRAK4 enzyme, the IC50 came to 1 nM.
The matching figures for `COC(=O)N1CC[C@H](Nc2cc(-c3ccc4cc(C#N)cnn34)ncc2C(=O)NC[C@@H](F)C(C)(C)O)C1` [Example 751, (S)-methyl 3-((2-(3-cyano-pyrrolo[1,2-b]pyridazin-7-yl)-5-(((R)-2-fluoro-3-hydroxy-3-methylbutyl)carbamoyl)pyridin-4-yl)amino)pyrrolidine-1-carboxylate]: 333 nM and 4 nM.
The matching figures for `COC(=O)N1CC[C@@H](Nc2cc(-c3ccc4cc(C#N)cnn34)ncc2C(=O)NC[C@@H](F)C(C)(C)O)C1` [Example 752, (R)-methyl 3-((2-(3-cyano-pyrrolo[1,2-b]pyridazin-7-yl)-5-(((R)-2-fluoro-3-hydroxy-3-methylbutyl)carbamoyl)pyridin-4-yl)amino)pyrrolidine-1-carboxylate]: 80 nM and below 1 nM.
The matching figures for `CC(C)(O)CNC(=O)c1cnc(-c2ccc3cc(C#N)cnn23)cc1NC12CCC(O)(CC1)CC2` [Example 753, 6-(3-cyanopyrrolo[1,2-b]pyridazin-7-yl)-N-(2-hydroxy-2-methylpropyl)-4-((4-hydroxybicyclo[2.2.2]octan-1-yl)amino) nicotinamide]: 225 nM and 7 nM.
Take `COC(=O)NC1CC2(C1)CC(Nc1cc(-c3ccc4cc(C#N)cnn34)ncc1C(=O)NC[C@@H](F)C(C)(C)O)C2` (stereo partly drawn) [Example 754, (R)-methyl (6-((2-(3-cyanopyrrolo[1,2-b]pyridazin-7-yl)-5-((2-fluoro-3-hydroxy-3-methylbutyl)carbamoyl)pyridin-4-yl)amino)spiro[3.3]heptan-2-yl)carbamate]: the 50% effective concentration (EC50) in the test with TNFα amounted to 20 nM. For the same compound, at IRAK4 enzyme, the half-inhibitory concentration (IC50) was below 1 nM.
In the case of `CC(C)(O)[C@H](F)CNC(=O)c1cnc(-c2ccc3cc(C#N)cnn23)cc1Nc1cnn(-c2ccccn2)c1` [Example 755, (R)-6-(3-cyanopyrrolo[1,2-b]pyridazin-7-yl)-N-(2-fluoro-3-hydroxy-3-methylbutyl)-4-((1-(pyridin-2-yl)-1H-pyrazol-4-yl)amino)nicotinamide], in the test on TNFα, the EC50 is 16 nM. The compound also registered an IC50 on IRAK4 enzyme of 1 nM.
The corresponding values for `COC(=O)NCC1(F)CC(Nc2cc(-c3ccc4cc(C#N)cnn34)ncc2C(=O)NC[C@@H](F)C(C)(C)O)C1` (stereo partly drawn) [Example 758, (R)-methyl ((3-((2-(3-cyanopyrrolo[1,2-b]pyridazin-7-yl)-5-((2-fluoro-3-hydroxy-3-methylbutyl)carbamoyl)pyridin-4-yl)amino)-1-fluorocyclobutyl)methyl)carbamate] are 11 nM and 1 nM.
The corresponding values for `CC(C)(O)[C@H](F)CNC(=O)c1cnc(-c2ccc3cc(C#N)cnn23)cc1Nc1cnn(-c2ccncc2)c1` [Example 761, (R)-6-(3-cyanopyrrolo[1,2-b]pyridazin-7-yl)-N-(2-fluoro-3-hydroxy-3-methylbutyl)-4-((1-(pyridin-4-yl)-1H-pyrazol-4-yl)amino) nicotinamide] are 26 nM and below 1 nM.
The corresponding values for `CC(C)(O)[C@H](F)CNC(=O)c1cnc(-c2ccc3cc(C#N)cnn23)cc1Nc1ccc(-n2cncn2)cc1` [Example 762, (R)-4-((4-(1H-1,2,4-triazol-1-yl)phenyl)amino)-6-(3-cyanopyrrolo[1,2-b]pyridazin-7-yl)-N-(2-fluoro-3-hydroxy-3-methylbutyl)nicotinamide] are 7 nM and below 1 nM.

As usually defined, the EC50 is the midpoint of the concentration-response curve. For orientation: IC50 means the concentration at which inhibition is half-maximal. A high value points to lower potency.
